Here are results for one compound from publication PMC7504104, “Dietary Intake of Rosmarinic Acid Increases Serum Inhibitory Activity in Amyloid A Aggregation and Suppresses Deposition in the Organs of Mice” (International Journal of Molecular Sciences, 2020).

Each structure is given as a SMILES string.

The EC50 is the concentration needed to bring the measured effect to its halfway point.

For the assay, the target named is T1, recombinant mouse SAA 1.1 (mSAA) (Mus musculus, UniProt P05366).
T1 construct: gene Saa1; cDNA in pET-15b, expressed in E. coli Rosetta, Ni Sepharose purified
T1 sequence (P05366 20-122): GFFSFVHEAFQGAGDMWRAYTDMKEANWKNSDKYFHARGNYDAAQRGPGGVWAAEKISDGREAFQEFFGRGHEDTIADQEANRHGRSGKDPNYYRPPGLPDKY
Briefly: quantum-dot fluorescence imaging of amyloid aggregation inhibition (MSHTS). Type of assay: biochemical.

In the case of `O=C(/C=C/c1ccc(O)c(O)c1)O[C@H](Cc1ccc(O)c(O)c1)C(=O)O` [RA, rosmarinic acid], the EC50 is 33.2 ± 2.19 µM.
